Measurements from US6451833B1, “N-substituted (α-imidazolyl-toluyl)pyrrole compounds for treatment of circulatory disorders” (Pharmacia Corporation, priority 1991, dated 2002).

Tests used:
[1] = target: smooth muscle angiotensin II receptor; experiment: Assay A: Angiotensin II Binding Activity; details: displacement of 125I-AII, rat uterine membrane preparation
Experimental: Compounds of the invention were tested for ability to bind to the smooth muscle angiotensin II receptor using a rat uterine membrane preparation. […] Other chemicals were obtained from Sigma Chemical Co. This assay was carried out according to the method of Douglas et al [Endocrinology, 106, 120-124 (1980)]. Rat uterine membranes were prepared from fresh tissue. All procedures were carried out at 4° C. Uteri were stripped of fat and homogenized in phosphate-buffered saline at pH 7.4 containing 5 mM EDTA. The homogenate was centrifuged at 1500×g for 20 min., and the supernatant was recentrifuged at 100,000×g for 60 min. The pellet was resuspended in buffer consisting of 2 mM EDTA and 50 mM Tris-HCl (pH 7.5) to a final protein concentration of 4 mg/ml. […] The reaction was initiated by the addition of membrane protein and the mixture was incubated at 25° C. for 60 min. The incubation was terminated with ice-cold 50 mM Tris-HCl (pH 7.5) and the mixture was filtered to separate membrane-bound labelled peptide from the free ligand. The incubation tube and filter were washed with ice-cold buffer. Filters were assayed for radioactivity in a Micromedic gamma counter. […] Specific binding was calculated as total binding minus nonspecific binding. […] Binding data were analyzed by a nonlinear least-squares curve fitting program.

rabbit aortic rings = experiment: Assay B: In Vitro Vascular Smooth Muscle Response for AII; details: test antagonist at 10^-5 M, AII contraction
Experimental: The compounds of the invention were tested for antagonist activity in rabbit aortic rings. Male New Zealand white rabbits (2-2.5 kg) were sacrificed using an overdose of pentobarbital and exsanguinated via the carotid arteries. The thoracic aorta was removed, cleaned of adherent fat and connective tissue and then cut into 3-mm ring segments. The endothelium was removed from the rings by gently sliding a rolled-up piece of filter paper into the vessel lumen. The rings were then mounted in a water-jacketed tissue bath, maintained at 37° C., between moveable and fixed ends of a stainless steel wire with the moveable end attached to an FT03 Grass transducer coupled to a Model 7D Grass Polygraph for recording isometric force responses. […] The preparations were equilibrated for one hour before approximately one gram of passive tension was placed on the rings. Angiotensin II concentration-response curves were then recorded (3×10^−10 to 1×10^−5 M). Each concentration of AII was allowed to elicit its maximal contraction, and then AII was washed out repeatedly for 30 minutes before rechallenging with a higher concentration of AII. Aorta rings were exposed to the test antagonist at 10^−5 M for 5 minutes before challenging with AII. […] Each test antagonist was evaluated in aorta rings from two rabbits.

AII pressor response = experiment: Assay C: In Vivo Intraduodenal Pressor Assay Response for AII Antagonists; design: species or system rat; details: anesthetized Sprague-Dawley rats, 30 mg/kg i.d.; for Assay C Inhibition: inhibition of AII pressor response; for Assay C Duration: time from peak percent inhibition to 50% of peak
Experimental: Male Sprague-Dawley rats weighing 225-300 grams were anesthetized with Inactin (100 mg/kg, i.p.) and catheters were implanted into the trachea, femoral artery, femoral vein and duodenum. Arterial pressure was recorded from the femoral artery catheter on a Gould chart recorder (Gould, Cleveland, Ohio). The femoral vein catheter was used for injections of angiotensin II, mecamylamine and atropine. The tracheal catheter allows for airway patency, and the duodenal catheter was used for intraduodenal (i.d.) administration of test compounds. After surgery, the rats were allowed to equilibrate for 30 minutes. Mecamylamine (3 mg/kg, 0.3 ml/kg) and atropine (400 ug/kg, 0.3 ml/kg) were then given i.v. to produce ganglion blockade. These compounds were administered every 90 minutes throughout the test procedure. Angiotensin II was given in bolus doses i.v. (30 ng/kg in saline with 0.5% bovine serum albumin, 0.1 ml/kg) every 10 minutes three times or until the increase in arterial pressure produced was within 3 mmHg for two consecutive AII injections. The last two AII injections were averaged and were taken as the control AII pressor response. Ten minutes after the final control AII injection, the test compound (dissolved in sodium bicarbonate) was administered i.d. at a dose of 30 mg/kg in a volume of 0.2 ml. Angiotensin II injections were then given 5, 10, 20, 30, 45, 60, 75, 90, and 120 minutes after administration of the test compound and response of arterial pressure was monitored. The response to AII was calculated as percent of the control response and then the percent inhibition is calculated as 100 minus the percent control response. Duration of action of a test compound was defined as the time from peak percent inhibition to 50% of peak. One compound at one dose was tested in each rat. Each test compound was tested in two rats and the values for the two rats were averaged.

melting point [°C] | IC50 [1] [µM] | SMILES | Assay B pA2 (rabbit aortic rings) | Assay C Inhibition (AII pressor response) [%] | Assay C Duration (AII pressor response) [min]
180 to 181 | – | CCCCc1nc(CO)c(Cl)n1Cc1ccc(-n2cccc2C(=O)O)cc1 [Example 3] | – | – | –
181 to 182 | 5.8 | CCCCc1nc(Cl)c(Cl)n1Cc1ccc(-n2cccc2C(=O)O)cc1 [Example 1, 1-[4-[(2-n-Butyl-4,5-dichloro-imidazolyl)methyl]phenyl]-1H-pyrrole-2-carboxylic Acid] | 5.6 | 74 | 5 to 10
– | – | CCCCc1nc(Cl)c(CO)n1Cc1ccc(-n2cccc2C(=O)O)cc1 [Example 2] | – | 92 | 20 to 30
